Here are results for six molecules from patent publication US9388147B2 (Receptos, Inc., priority 2009, dated 2016).

Read-outs that look alike come from different tables or passages of the source. Where only a bound is given, the exact number is not on record here.

For one data set, the target named is S1P1/EDG1 (Homo sapiens, UniProt P21453). The data set can be described thus: S1P1 CRE-bla CHOK1 reporter assay, inhibition of Forskolin induced cAMP. Format: cell-based. In a few lines:
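Read-out is a FRET β-lactamase substrate (2 h, room temperature) after 4 h, 37 °C compound treatment under 2 μM Forskolin in stable S1P1-transfected CRE-bla CHO-K1 cells. Ten-point curves; non-linear regression gives EC50 for inhibition of Forskolin-stimulated cAMP.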

The next data set deals with T1, S1P2 (Homo sapiens, UniProt O95136).
T1 construct: expressed in transfected cells; host or cells: CRE-bla CHOK1
Description: Specificity over other S1P receptors: S1P2 CRE-bla CHOK1 reporter assay. It is filed as cell-based. The note with it: S1P2 CRE-bla CHOK1, without Forskolin; read-out: S1P2 agonist value (EC50). The procedure:
(§1) Cells were seeded into 384-well black wall/clear bottom plates at 10^4 cells/well/19.5 μl assay media (DMEM-phenol free, 0.5% charcoal/dextran stripped serum, 2 mM glutamine, 0.1 mM NEAA, 1 mM Na-Pyruvate, 25 mM Hepes) and incubated for 18 hrs at 37° C. in 5% CO2. Dose response curves (10-point) were generated in 10 mM Hepes, 0.1% Pluronic F127, in the presence of Forskolin. Cells were treated with 0.5 μl compound in the presence of 2 μM Forskolin for 4 hrs at 37° C. The FRET-based β-lactamase fluorescent substrate (LiveBLAzer™-FRET B/G Loading Kit CC4-AM; Invitrogen) was prepared according to manufacturer's directions, and incubated with cells for 2 hrs at room temperature. Plates were read at Ex:410/Em:458 and Ex:410/Em:522, and the response ratio determined. Data was analyzed by non-linear regression to determine the EC50 for inhibition of Forskolin induced cAMP.
(§2) To assess compound specificity on other S1P receptors the following cell lines were used: S1P2 CRE-bla CHOK1, S1P3-Gα15 NFAT-bla HEK293T (Invitrogen), S1P4-bla TANGO U2OS (Invitrogen), S1P5-bla TANGO U2OS (Invitrogen). The same assay set up for S1P1 was used but without Forskolin. S1P4 and S1P5 assays were performed in FreeStyle Expression medium (Invitrogen). S1P5 cells were incubated for 48 hrs in prior to treatment with compound.
A general note: In a reporter assay the amount or activity of a reporter protein is the signal.

A further data set deals with T2, S1P3 (Homo sapiens, UniProt Q99500).
T2 construct: host or cells: NFAT-bla HEK293T
Description: Specificity over other S1P receptors: S1P3-Gα15 NFAT-bla HEK293T reporter assay. It is filed as cell-based. The note with it: without Forskolin, read-out: S1P3 agonist value (EC50). The procedure: as §1, §2

For a further data set, the target named is T3, S1P4 (Homo sapiens, UniProt O95977).
T3 construct: Tango fusion (own knowledge: protease cleavage site plus GAL4-VP16 transcription factor at the receptor's C-terminus); host or cells: U2OS (Tango -bla)
T3 sequence (O95977 1-384): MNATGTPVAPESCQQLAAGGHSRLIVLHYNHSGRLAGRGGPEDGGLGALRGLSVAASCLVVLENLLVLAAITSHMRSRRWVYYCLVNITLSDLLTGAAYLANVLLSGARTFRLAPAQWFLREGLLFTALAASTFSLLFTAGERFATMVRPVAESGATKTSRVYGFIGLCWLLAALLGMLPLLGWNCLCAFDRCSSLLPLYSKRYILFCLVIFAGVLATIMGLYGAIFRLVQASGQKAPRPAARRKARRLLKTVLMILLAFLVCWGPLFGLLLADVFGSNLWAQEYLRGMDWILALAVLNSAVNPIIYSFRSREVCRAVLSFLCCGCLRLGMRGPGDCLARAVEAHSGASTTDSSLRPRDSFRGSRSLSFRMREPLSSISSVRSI
Description: Specificity over other S1P receptors: S1P4-bla TANGO U2OS assay. Format: cell-based. The note with it: read-out: S1P4 agonist value (EC50). The procedure:
as §1, §2

In a further data set the target is T4, S1P5 (Homo sapiens, UniProt Q9H228).
T4 construct: Tango fusion (own knowledge: protease cleavage site plus GAL4-VP16 transcription factor at the receptor's C-terminus); host or cells: U2OS (Tango -bla)
The data set can be described thus: Specificity over other S1P receptors: S1P5-bla TANGO U2OS assay. Format: cell-based. The note with it: read-out: S1P5 agonist value (EC50). The procedure:
as §1, §2

Data set [1] can be described thus: Evaluation of therapeutic index in rats: 5 or 14 day toxicology study, lung to body weight ratio. It is filed as in vivo, Sprague-Dawley rat. Particulars: for Dose Resulting in 10% increase in lung weight: rats, oral, 5 or 14 consecutive days, interpolated from dose versus lung to body weight; for TI 5 days: 5 day toxicology study in rats. The procedure:
All studies were conducted in non-fasted male and female Sprague-Dawely rats (Simonsen Laboratories). Rats were housed in an AAALAC accredited facility and the research was approved by the facilities Institutional Animal Care and Use Committee (IACUC). The animals were acclimated to the laboratory for at least 5 days prior to initiation of experiments.
(§3) The compounds listed in Table 6 were formulated as suspensions in a vehicle consisting of 0.5% carboxymethyl cellulose (Acros Organics) in purified water (pH adjusted to ˜2.2 with hydrochloric acid). The same formulation was used in the rat lymphopenia and toxicology studies described below. The concentration of each compound in suspension was verified to be within ±10% of the target concentration by HPLC-UV.
In the toxicology studies, three male and three female rats per group were assigned to dosing groups using body weight based randomization. A control group in each study received vehicle. All animals were dosed orally by gavage on 5 or 14-consecutive days at a dose volume of 5 mL/kg/day. The animals were observed daily for any manifestations of adverse effect. Twenty-four hours after the final study dose, the rats were anesthetized with isoflurane and a terminal blood sample was taken by intra-cardiac puncture for hematology and clinical chemistry evaluation (IDEXX Laboratories, Sacramento, Calif.). The lungs with trachea were collected, weighed, and then prepared for histology by perfusion with 10% neutral buffered formalin via the trachea. The internally fixed lungs were then preserved in 10% neutral buffered formalin and submitted for histological examination (IDEXX).
The dose of each compound resulting in a 10% increase in the lung to terminal body weight ratio was estimated for each compound by linear interpolation. The therapeutic index was estimated as the ratio of the dose producing 10% lung weight increase to the dose producing 50% T-Cell depletion.
(§4) The dose producing a 10% increase in lung to body weight ratio was interpolated from a plot of dose versus lung to body weight. The lymphopenia response was measured 24 hours following the final dose of a 3-5 day multiple dose regimen.

For the next data set, the system named is peripheral T-cell counts. The data set can be described thus: Lymphopenia in rats, 3-5 day multiple dose regimen. Particulars: female rats, oral, 24 h after final dose of a 3-5 day multiple dose regimen. Format: in vivo, rat. The procedure: In rats: Female rats (Simonsen Laboratories, Gilroy Calif.) were housed in an ALAAC accredited facility and the research was approved by the facilities Institutional Animal Care and Use Committee (IACUC). The animals were acclimated to the laboratory for at least 5 days prior to initiation of experiments. Rats (n=3/compound/time-point) were dosed by oral gavage with 1 mg/kg compound formulated in a vehicle consisting of 5% DMS0/5% Tween 20 and 90% 0.1N HCL. Control rats were dosed PO with the vehicle. Whole blood was collected from isoflurane anesthetized rats via the retro-orbital sinus and terminal samples were collected by cardiac puncture into EDTA. Whole blood was incubated with mouse anti-rat CD32 (BD #550271), PE-mouse anti-rat CD45R/B220 (BD #554881), PECy5-mouse anti-rat CD4 (BD #554839), and APC-mouse anti-rat CD8a (eBioscience #17-0084) for 30 minutes on ice. Red blood cells were lysed using BD Pharm Lyse Lysing buffer (#555899) and white blood cells were analyzed with a BD FACSArray. Lymphopenia was expressed as the % of white blood cells that were CD4 or CD8 positive T cells. The overall lymphopenia response over 24 h was estimated by calculating the area under the effect curve (AUEC) using the linear trapezoidal rule.
as §3
Prior to the conduct of toxicology studies, the effect of three to five daily doses of each compound on peripheral T-cell counts of female rats was determined (see lymphopenia measurements in rats above). In these lymphopenia studies, blood samples were collected onto EDTA at intervals after the final study dose. The collection times were not identical for each study, however, all studies included a sample collected 24 hours after the final dose. The lymphopenia data was used as a biomarker to select equally pharmacologically active doses for the subsequent toxicology study. […] The high dose in the toxicology study represented a ≧20-fold increment over the low dose.
as §4

Setting [2] is: S1P1 CRE-bla CHOK1, with Forskolin, read-out: S1P1 agonist value (EC50).
The mark [3] stands for this setting: agonist activity range, S1P1 CRE-bla CHOK1, 2 μM Forskolin, read-out: S1P1 ACTIVITY
Where [4] appears, read: therapeutic index: dose producing 10% lung weight increase / dose producing 50% T-cell depletion.

T4 sequence (Q9H228 whole entry, the tested form may be a part): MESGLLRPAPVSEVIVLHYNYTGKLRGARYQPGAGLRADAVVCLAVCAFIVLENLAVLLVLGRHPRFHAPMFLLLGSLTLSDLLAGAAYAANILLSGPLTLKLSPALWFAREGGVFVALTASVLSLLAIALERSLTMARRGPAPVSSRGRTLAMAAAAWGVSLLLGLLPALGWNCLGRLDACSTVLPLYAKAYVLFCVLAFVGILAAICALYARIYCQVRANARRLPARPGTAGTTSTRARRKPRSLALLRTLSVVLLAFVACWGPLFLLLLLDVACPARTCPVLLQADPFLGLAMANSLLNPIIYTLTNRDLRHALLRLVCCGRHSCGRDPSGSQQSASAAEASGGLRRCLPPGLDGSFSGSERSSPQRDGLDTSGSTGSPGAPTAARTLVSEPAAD
Chain of S1P1/EDG1 (P21453 whole entry): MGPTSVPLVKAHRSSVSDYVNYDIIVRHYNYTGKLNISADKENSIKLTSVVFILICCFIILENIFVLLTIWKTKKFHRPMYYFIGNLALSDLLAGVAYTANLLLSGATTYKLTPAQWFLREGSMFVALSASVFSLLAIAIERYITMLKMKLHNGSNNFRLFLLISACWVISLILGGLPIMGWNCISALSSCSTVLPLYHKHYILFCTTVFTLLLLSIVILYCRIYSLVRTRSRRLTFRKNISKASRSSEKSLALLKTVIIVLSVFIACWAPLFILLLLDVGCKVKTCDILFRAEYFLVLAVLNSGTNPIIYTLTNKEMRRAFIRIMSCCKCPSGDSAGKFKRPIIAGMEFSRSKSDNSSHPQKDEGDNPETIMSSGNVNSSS
T1 sequence (O95136 whole entry, species assumed): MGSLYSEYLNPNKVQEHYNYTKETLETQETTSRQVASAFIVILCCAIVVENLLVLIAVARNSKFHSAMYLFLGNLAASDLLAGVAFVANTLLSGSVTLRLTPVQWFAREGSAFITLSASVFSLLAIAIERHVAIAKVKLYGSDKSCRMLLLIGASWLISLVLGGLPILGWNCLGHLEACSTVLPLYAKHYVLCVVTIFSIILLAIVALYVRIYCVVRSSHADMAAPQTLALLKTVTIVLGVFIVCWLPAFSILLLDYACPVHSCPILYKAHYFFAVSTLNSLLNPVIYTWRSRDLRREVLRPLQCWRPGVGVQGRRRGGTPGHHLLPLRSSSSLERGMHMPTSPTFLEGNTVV
T2 sequence (Q99500 whole entry): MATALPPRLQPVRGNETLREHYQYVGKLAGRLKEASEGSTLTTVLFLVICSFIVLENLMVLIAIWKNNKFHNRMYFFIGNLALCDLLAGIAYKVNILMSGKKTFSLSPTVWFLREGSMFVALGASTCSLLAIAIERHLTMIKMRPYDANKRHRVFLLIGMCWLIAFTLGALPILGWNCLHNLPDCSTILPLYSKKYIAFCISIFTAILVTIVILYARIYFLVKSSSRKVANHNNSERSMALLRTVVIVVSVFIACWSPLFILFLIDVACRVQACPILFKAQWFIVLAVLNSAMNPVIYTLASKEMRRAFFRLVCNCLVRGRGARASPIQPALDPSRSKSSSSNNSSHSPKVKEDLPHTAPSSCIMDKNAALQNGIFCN

Regarding `COCCS(=O)(=O)N[C@@H]1CCc2c(-c3noc(-c4ccc(OC(C)C)c(C#N)c4)n3)cccc21` [Compound 163, (R)-N-(4-(5-(3 cyano-4-isopropoxyphenyl)-1,2,4-oxadiazol-3-yl)-2,3-dihydro-1H-inden-1-yl)-2-methoxyethanesulfonamide], the EC50 was 0.09 nM on S1P1/EDG1 (setting [2]); 0.05 to 0.5 nM at S1P1/EDG1 (setting [3]); > 10000 nM at S1P2; > 10000 nM on S1P3; > 10000 nM at S1P4; 50 nM on S1P5. In data set [1], the “Dose Resulting in 10% increase in lung weight” value (“Dose Resulting in 10% increase” below) amounted to 2.1 mg/kg. In data set [1] (therapeutic index: dose producing 10% lung weight increase / dose producing 50% T-cell depletion, 14 day toxicology study in rats), the “TI 14 days” value came to 30. Also, the “Dose Producing 50% lymphopenia” value in the data set with peripheral T-cell counts is recorded as 0.07 mg/kg.
Regarding `COCCS(=O)(=O)N[C@H]1CCc2c(-c3noc(-c4ccc(OC(C)C)c(C#N)c4)n3)cccc21` [Compound 164, (S)-N-(4-(5-(3-cyano-4-isopropoxyphenyl)-1,2,4-oxadiazol-3-yl)-2,3-dihydro-1H-inden-1-yl)-2-methoxyethanesulfonamide], the EC50 on S1P1/EDG1 (setting [2]) is 0.36 nM; on S1P1/EDG1 (setting [3]) it was 0.05 to 0.5 nM; on S1P2 it was > 10000 nM; on S1P3 it was > 10000 nM; at S1P4, > 10000 nM; on S1P5, 174 nM. In addition, the “Dose Resulting in 10% increase” value in data set [1] is 5.0 mg/kg. Also, in data set [1] (setting [4]), the “TI 5 days” value stood at 20. Also, in the data set with peripheral T-cell counts, the “Dose Producing 50% lymphopenia” value is listed as 0.25 mg/kg.
As for `CC(C)Oc1ccc(-c2nc(-c3cccc4c3CC[C@H]4NS(=O)(=O)CCO)no2)cc1C#N` [Compound 186, (R)-N-(4-(5-(3 cyano-4-isopropoxyphenyl)-1,2,4-oxadiazol-3-yl)-2,3-dihydro-1H-inden-1-yl)-2-hydroxyethanesulfonamide], the EC50 on S1P1/EDG1 (setting [2]) is 0.05 nM; at S1P1/EDG1 (setting [3]) it was 0.05 to 0.5 nM; at S1P2 it was 1570 nM; at S1P3 it was > 10000 nM; on S1P4, 1210 nM; at S1P5, 32.3 nM. In data set [1], the “Dose Resulting in 10% increase” value is listed as 1.1 mg/kg. Also, the “TI 5 days” value in data set [1] (setting [4]) is on record as 16. In addition, in the data set with peripheral T-cell counts, the “Dose Producing 50% lymphopenia” value is 0.07 mg/kg.
As to `CC(C)Oc1ccc(-c2nc(-c3cccc4c3CC[C@@H]4NS(=O)(=O)CCO)no2)cc1C#N` [Compound 187, (S)-N-(4-(5-(3-cyano-4-isopropoxyphenyl)-1,2,4-oxadiazol-3-yl)-2,3-dihydro-1H-inden-1-yl)-2-hydroxyethanesulfonamide], the EC50 was 0.1 nM on S1P1/EDG1 (setting [2]); 0.05 to 0.5 nM at S1P1/EDG1 (setting [3]); > 10000 nM on S1P2; > 10000 nM on S1P3; > 10000 nM at S1P4; 57.1 nM at S1P5. Further, the “Dose Resulting in 10% increase” value in data set [1] amounted to 5.0 mg/kg. For the same molecule, the “TI 5 days” value in data set [1] (setting [4]) came out at 10. For the same molecule, the “Dose Producing 50% lymphopenia” value in the data set with peripheral T-cell counts came out at 0.50 mg/kg.
Consider `CC(C)Oc1ccc(-c2nc(-c3cccc4c3CC[C@H]4NC(=O)N3CC(O)C3)no2)cc1C#N` [Compound 234, (R)-N-(4-(5-(3 cyano-4-isopropoxyphenyl)-1,2,4-oxadiazol-3-yl)-2,3-dihydro-1H-inden-1-yl)-3-hydroxyazetidine-1-carboxamide], for which the EC50 on S1P1/EDG1 (setting [2]) was 0.1 nM; on S1P1/EDG1 (setting [3]), 0.05 to 0.5 nM; on S1P2, > 10000 nM; on S1P3, > 10000 nM; on S1P4 it was 739 nM; on S1P5, 76.1 nM. Further, in data set [1], the “Dose Resulting in 10% increase” value stood at 21.3 mg/kg. In data set [1] (setting [4]), the “TI 5 days” value is on record as 24. Further, the “Dose Producing 50% lymphopenia” value with peripheral T-cell counts is listed as 0.90 mg/kg.
For the molecule `CC(C)Oc1ccc(-c2nc(-c3cccc4c3CC[C@@H]4NC(=O)N3CC(O)C3)no2)cc1C#N` [Compound 235], the EC50 on S1P1/EDG1 (setting [2]) is 0.1 nM; at S1P1/EDG1 (setting [3]), 0.05 to 0.5 nM; at S1P2, > 10000 nM; at S1P3, > 10000 nM; on S1P4 it was > 10000 nM; on S1P5 it was 39.8 nM. Moreover, the “Dose Resulting in 10% increase” value in data set [1] came out at 11.3 mg/kg. Further, the “TI 5 days” value in data set [1] (setting [4]) was found to be 6. The “Dose Producing 50% lymphopenia” value in the data set on peripheral T-cell counts was 2.00 mg/kg.
